Laboratory results as given in patent US9302999B2, “Substituted triazoles as herbicides” (E. I. DU PONT DE NEMOURS AND COMPANY, priority 2012, dated 2016).

Assays:
Assay type in all cases: in vivo
[1] = test system: speedwell (bird's-eye speedwell, Veronica persica); assay: Test D pre-/postemergence: speedwell; details: for Plant response rating, Speedwell: 16 g ai/ha
Outline: (§1)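 Species were sown in silt loam and sprayed preemergence, or grown in peat/vermiculite medium and sprayed postemergence at the 1- to 4-leaf stage (2–18 cm), with compounds in a surfactant-containing solvent. Injury was visually rated against untreated controls after 14–21 days, on a 0 (no effect) to 100 (complete control) scale.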

[2] = test system: radish, wild (wild radish, Raphanus raphanistrum); assay: Test D pre-/postemergence: radish, wild
Text: (§2) Seeds of plant species selected from bluegrass (annual bluegrass, Poa annua), blackgrass (Alopecurus myosuroides), canarygrass (Phalaris minor), chickweed (common chickweed, Stellaria media), galium (catchweed bedstraw, Galium aparine), bromegrass, downy (downy bromegrass, Bromus tectorum), field poppy (Papaver rhoeas), field violet (Viola arvensis), foxtail, green (green foxtail, Setaria viridis), deadnettle (henbit deadnettle, Lamium amplexicaule), ryegrass, Italian (Italian ryegrass, Lolium multiflorum), kochia (Kochia scoparia), lambsquarters (Chenopodium album), oilseed rape (Brassica napus), pigweed (Amaranthus retroflexus), Russian thistle (Salsola iberica), chamomile (scentless chamomile, Matricaria inodora), speedwell (bird's-eye speedwell, Veronica persica), barley, spring (spring barley, Hordeum vulgare), wheat, spring (spring wheat, Triticum aestivum), buckwheat, wild (wild buckwheat, Polygonum convolvulus), mustard, wild (wild mustard, Sinapis arvensis), oat, wild (wild oat, Avena fatua), radish, wild (wild radish, Raphanus raphanistrum), windgrass (Apera spica-venti), barley, winter (winter barley, Hordeum vulgare), and wheat, winter (winter wheat, Triticum aestivum) were planted into a silt loam soil and treated preemergence with test chemicals formulated in a non-phytotoxic solvent mixture which included a surfactant. At the same time, these same crop and weed species were planted in pots containing the planting medium comprising spaghnum peat moss, vermiculite, wetting agent and starter nutrients and treated with postemergence applications of the test chemicals formulated in the same manner. Plants ranged in height from 2 to 18 cm (1- to 4-leaf stage).
(§3) Treated plants and controls were maintained in a controlled growth environment for 14 to 21 days after which time all species were compared to controls and visually evaluated. Plant response ratings, summarized in Table D, are based on a scale of 0 to 100 where 0 is no effect and 100 is complete control. A dash (-) response means no test result.

[3] = test system: sedge, umbrella (small-flower umbrella sedge, Cyperus difformis); assay: Test C flooded paddy test: sedge, umbrella; details: scale 0 to 100 (0 no effect, 100 complete control)
Outline: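 Plants at 2-leaf stage in pots flooded 3 cm above soil; compounds applied directly into the paddy water, depth maintained. Visual rating against controls after 13–15 days in greenhouse, scale 0 (no effect) to 100 (complete control).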

[4] = test system: windgrass (Apera spica-venti); assay: Test D pre-/postemergence: windgrass
Text: as §2, §3

[5] = test system: lambsquarters (Chenopodium album); assay: Test D pre-/postemergence: lambsquarters
Outline: as §1

[6] = Postemergence, 31 g ai/ha, scale 0 to 100 (0 no effect, 100 complete control)
[7] = Postemergence, 62 g ai/ha, scale 0 to 100 (0 no effect, 100 complete control)
[8] = Postemergence, 125 g ai/ha, scale 0 to 100, 0 no effect, 100 complete control
[9] = Postemergence, 250 g ai/ha, scale 0 to 100 (0 no effect, 100 complete control)
[10] = Postemergence, 16 g ai/ha, scale 0 to 100
[11] = Preemergence, 31 g ai/ha, scale 0 to 100, 0 no effect, 100 complete control
[12] = Preemergence, 62 g ai/ha, scale 0 to 100
[13] = Preemergence, 125 g ai/ha, scale 0 to 100
[14] = Preemergence, 250 g ai/ha, scale 0 to 100
[15] = Flood (flooded paddy test), 125 g ai/ha, visual rating after 13 to 15 days
[16] = Flood (flooded paddy test), 250 g ai/ha, visual rating after 13 to 15 days
[17] = Preemergence, 16 g ai/ha, scale 0 to 100, 0 no effect, 100 complete control

| SMILES | Plant response rating: Speedwell [1, 6] | Plant response rating: Speedwell [1, 7] | Plant response rating: Speedwell [1, 8] | Plant response rating: Speedwell [1, 9] | Plant response rating, Speedwell ([1]; Postemergence, scale 0 to 100) | Plant response rating: Radish, Wild [2, 6] | Plant response rating: Radish, Wild [2, 7] | Plant response rating: Radish, Wild [2, 8] | Plant response rating: Radish, Wild [2, 9] | Plant response rating, Radish, Wild [2, 10] | Plant response rating: Windgrass [4, 6] | Plant response rating: Windgrass [4, 7] | Plant response rating: Windgrass [4, 8] | Plant response rating: Windgrass [4, 9] | Plant response rating, Windgrass [4, 10] | Plant response rating: Lambsquarters [5, 6] | Plant response rating: Lambsquarters [5, 7] | Plant response rating: Lambsquarters [5, 8] | Plant response rating: Lambsquarters [5, 9] | Plant response rating, Lambsquarters [5, 10] | other results |
| --- | --- | --- | --- | --- | --- | --- | --- | --- | --- | --- | --- | --- | --- | --- | --- | --- | --- | --- | --- | --- | --- |
| COc1nn(-c2ccc(C(F)(F)F)cc2)nc1Cc1ccnc(C(F)(F)F)c1 [Compound 15, 4-[[5-methoxy-2-[4-(trifluoromethyl)phenyl]-2H-1,2,3-triazol-4-yl]methyl]-2-(trifluoromethyl)pyridine] | 100 | 100 | 100 | 100 | 100 | 100 | 100 | 100 | 100 | 100 | 10 | 25 | 75 | 100 | 5 | 100 | 100 | 100 | 100 | 50 | Plant response rating, Radish, Wild [2, 11]: 0; Plant response rating, Radish, Wild [2, 12]: 0; Plant response rating, Radish, Wild [2, 13]: 100; Plant response rating, Radish, Wild [2, 14]: 100; pest or weed control at 62 g/ha ([3]; Cyperus difformis, Flood (flooded paddy test), 62 g ai/ha, visual rating after 13 to 15 days, read-out: Plant response rating, Sedge, Umbrella): 75%; pest or weed control at 250 g/ha ([3]; Cyperus difformis, Flood (flooded paddy test), 250 g ai/ha, visual rating after 13 to 15 days, read-out: Plant response rating, Sedge, Umbrella): 80%; Plant response rating, Windgrass [4, 11]: 30; Plant response rating, Windgrass [4, 12]: 40; Plant response rating, Windgrass [4, 13]: 100; Plant response rating, Windgrass [4, 14]: 100; Plant response rating, Lambsquarters [5, 11]: 0; Plant response rating, Lambsquarters [5, 12]: 90; Plant response rating, Lambsquarters [5, 13]: 100; Plant response rating, Lambsquarters [5, 14]: 100 |
| Cc1nn(-c2ccc(C(F)(F)F)cn2)nc1Oc1ccnc(C(F)(F)F)c1 [Compound 23] | 10 | 20 | 50 | 60 | 5 | 20 | 40 | 75 | 100 | 20 | 5 | 10 | 20 | 30 | 0 | 30 | 80 | 100 | 100 | 30 | Plant response rating, Sedge, Umbrella ([3]; Flood (flooded paddy test), 62 g ai/ha, visual rating after 13 to 15 days): 75; Plant response rating, Sedge, Umbrella [3, 15]: 80; Plant response rating, Sedge, Umbrella [3, 16]: 90; Plant response rating, Sedge, Umbrella ([3]; Flood, 31 g ai/ha): 60 |
| Cc1nn(-c2ccc(C(F)(F)F)cn2)nc1Cc1cccc(C(F)(F)F)c1 [Compound 106] | 0 | 0 | 90 | 90 | 0 | 100 | 100 | 100 | 100 | 100 | 10 | 25 | 35 | 50 | 5 | 30 | 30 | 50 | 90 | 20 | Plant response rating, Radish, Wild [2, 11]: 0; Plant response rating, Radish, Wild [2, 12]: 30; Plant response rating, Radish, Wild [2, 13]: 30; Plant response rating, Radish, Wild [2, 14]: 30; Plant response rating, Sedge, Umbrella [3, 15]: 75; Plant response rating, Sedge, Umbrella [3, 16]: 80; Plant response rating, Sedge, Umbrella ([3]; Flood, 31 g ai/ha): 50; Plant response rating, Sedge, Umbrella ([3]; Flood, 62 g ai/ha): 50; Plant response rating, Windgrass [4, 11]: 5; Plant response rating, Windgrass [4, 12]: 5; Plant response rating, Windgrass [4, 13]: 25; Plant response rating, Windgrass [4, 14]: 80; Plant response rating, Lambsquarters [5, 11]: 40; Plant response rating, Lambsquarters [5, 12]: 40; Plant response rating, Lambsquarters [5, 13]: 40; Plant response rating, Lambsquarters [5, 14]: 40 |
| Cc1nn(-c2ccc(C(F)(F)F)cc2)nc1Oc1ccnc(C(F)(F)F)c1 [Compound 120] | 100 | 100 | 100 | 100 | 60 | 100 | 90 | 100 | 100 | 100 | 15 | 95 | 100 | 100 | 5 | 98 | 100 | 100 | 100 | 95 | Plant response rating, Speedwell ([1]; Preemergence, scale 0 to 100, 0 no effect, 100 complete control): 0; Plant response rating, Radish, Wild [2, 17]: 0; Plant response rating, Radish, Wild [2, 12]: 20; Plant response rating, Radish, Wild [2, 13]: 90; Plant response rating, Radish, Wild [2, 14]: 100; Plant response rating, Sedge, Umbrella [3, 15]: 90; Plant response rating, Sedge, Umbrella [3, 16]: 90; Plant response rating, Sedge, Umbrella ([3]; Flood, 62 g ai/ha): 85; Plant response rating, Windgrass [4, 17]: 0; Plant response rating, Windgrass [4, 11]: 80; Plant response rating, Windgrass [4, 12]: 100; Plant response rating, Windgrass [4, 13]: 100; Plant response rating, Windgrass [4, 14]: 100; Plant response rating, Lambsquarters [5, 11]: 80; Plant response rating, Lambsquarters [5, 12]: 90; Plant response rating, Lambsquarters [5, 13]: 100; Plant response rating, Lambsquarters [5, 14]: 100 |
